Each structure is given as a SMILES string.

The values that follow come from article PMC11314366, “Unveiling the Catalytic Roles of DsBBS1 and DsBBS2 in the Bibenzyl Biosynthesis of Dendrobium sinense” (Molecules, 2024).

For the experiment, the system named is DsBBS2. Kind of experiment: HPLC of resveratrol formed, nonlinear curve fitting. As to conditions: 0.5 mM malonyl-CoA, 50 mM Hepes, 37 °C, 30 min; p-coumaroyl-CoA 0.5-5.0 mM. The class given is biochemical, Dendrobium sinense.

As to `CC(C)(COP(=O)(O)OP(=O)(O)OC[C@H]1O[C@@H](n2cnc3c(N)ncnc32)[C@H](O)[C@@H]1OP(=O)(O)O)[C@@H](O)C(=O)NCCC(=O)NCCSC(=O)/C=C/c1ccc(O)cc1` [p-coumaroyl-CoA], the Michaelis-Menten constant (Km) – broadly, the concentration of substrate that gives half-maximal velocity – was determined as 2050 ± 310 µM.
